{
  "source": "paper PMC6934700",
  "about": "“Structure-Guided Design of a Fluorescent Probe for the Visualization of FtsZ in Clinically Important Gram-Positive and Gram-Negative Bacterial Pathogens” (Scientific Reports, 2019)",
  "system": "FtsZ in K. pneumoniae ATCC 13883 cells",
  "experiment": "FtsZ visualization by fluorescence microscopy in live cells",
  "assay_type": "cell-based, Klebsiella pneumoniae",
  "conditions": "1 µg/mL for 5 minutes",
  "method": "All differential interference contrast (DIC) and fluorescence microscopy experiments were conducted using an Olympus BX50 microscope equipped with an X-cite Exacte 200 W mercury lamp, a 100× Olympus UPLSAPO oil immersion objective (1.40 aperture), as well as both Chroma ET-EGFP (FITC/Cy2) and ET mCherry, Texas Red filters. Images were captured using a QImaging Retiga R3 charge-coupled device (CCD) camera and the Ocular-Version 2.0 software package (QImaging).\nFor visualizing FtsZ in Gram-negative bacteria using BOFP, E. coli ATCC 25922, K. pneumoniae ATCC 13883, P. aeruginosa ATCC 27853, and A. baumannii ATCC 19606 were grown to log-phase in CAMH broth. For each Gram-negative bacterial strain, a total of 1 mL of cell culture was centrifuged at 15,000 × g for 1 minute and washed twice with 1 mL of Tris-buffered saline (TBS) composed of 50 mM Tris-HCl (pH 7.6) and 150 mM NaCl. After the final wash, the pelleted cells were resuspended in 500 µL of TBS containing 1 µg/mL of BOFP and pentamidine isethionate (at 0.875 mg/mL for E. coli and 3.5 mg/mL for the other three strains). The resuspended cells were then incubated in the dark for 5 minutes at room temperature, centrifuged at 15,000 × g for 1 minute, washed twice with 1 mL of TBS, and subsequently resuspended in 200 µL of TBS. This final cell suspension was then prepared for microscopy as described for the Gram-positive bacterial strains. Comparative control experiments with 1 µg/mL BODIPY FL-COOH were conducted in K. pneumoniae ATCC 13883 cells as described above for BOFP.",
  "data": [
    {"smiles": "CC1=CC(C)=[N+]2C1=Cc1ccc(CCC(=O)OCC(Oc3ccc(F)c(C(N)=O)c3F)c3nc(-c4ccc(C(F)(F)F)cc4)c(Br)o3)n1[B-]2(F)F", "note": "(centres unmarked) [BOFP]", "values": [
      {"measurement": "Fluorescence staining / FtsZ labeling in live cells", "setting": "co-treated with 3.5 mg/mL pentamidine isethionate", "result": "bright fluorescence staining becomes visible both at midcell and along the cell periphery"},
      {"measurement": "Fluorescence staining / FtsZ labeling in live cells", "setting": "without pentamidine isethionate", "result": "little or no FtsZ labeling"}
    ]}
  ]
}
